Laboratory results as given in patent publication US20200397764A1, “VAP-1 INHIBITORS FOR TREATING PAIN” (BENEVOLENTAI CAMBRIDGE LIMITED, priority 2015, published 2020).

Legend:
human VAP-1 (SSAO) = target: T1, human VAP-1 (SSAO) (Homo sapiens, UniProt Q16853); experiment: VAP-1 Inhibition Assay (benzylamine substrate, HRP-coupled hydrogen peroxide or 14C benzaldehyde detection); assay type: biochemical; conditions: purified recombinant human VAP-1 (SSAO), room temperature
T1 construct: made in house
T1 sequence (Q16853 29-763 limits assumed): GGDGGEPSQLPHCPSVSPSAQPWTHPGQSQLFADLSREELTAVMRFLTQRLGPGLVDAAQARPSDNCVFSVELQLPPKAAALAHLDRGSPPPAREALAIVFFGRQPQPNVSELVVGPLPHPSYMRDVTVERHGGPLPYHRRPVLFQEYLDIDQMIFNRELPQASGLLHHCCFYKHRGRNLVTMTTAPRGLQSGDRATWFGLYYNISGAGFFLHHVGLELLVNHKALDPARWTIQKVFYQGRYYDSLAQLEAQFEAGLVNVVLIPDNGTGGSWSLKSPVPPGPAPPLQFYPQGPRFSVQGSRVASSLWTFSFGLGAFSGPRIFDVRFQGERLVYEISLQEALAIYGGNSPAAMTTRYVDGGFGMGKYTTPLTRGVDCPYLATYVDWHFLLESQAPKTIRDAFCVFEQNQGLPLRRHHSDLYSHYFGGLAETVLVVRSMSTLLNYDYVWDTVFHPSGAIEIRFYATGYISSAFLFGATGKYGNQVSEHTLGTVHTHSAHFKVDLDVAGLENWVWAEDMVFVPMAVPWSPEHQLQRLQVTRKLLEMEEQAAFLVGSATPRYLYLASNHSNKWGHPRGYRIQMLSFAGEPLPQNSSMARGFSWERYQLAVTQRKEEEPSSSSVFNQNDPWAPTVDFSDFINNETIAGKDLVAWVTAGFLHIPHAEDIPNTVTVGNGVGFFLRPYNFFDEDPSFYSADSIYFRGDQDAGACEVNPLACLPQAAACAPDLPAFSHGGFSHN
Procedure: This assay is performed at room temperature with purified recombinantly expressed human VAP-1 (SSAO). Enzyme was prepared essentially as described in Ohman et al. (Protein Expression and Purification 46 (2006) 321-331). The enzyme activity is assayed with benzylamine as substrate by measuring either benzaldehyde production, using 14C-labeled substrate, or by utilizing the production of hydrogen peroxide in a horseradish peroxidise (HRP) coupled reaction. Briefly, test compounds are dissolved in dimethyl sulfoxide (DMSO) to a concentration of 10 mM. […]
Hydrogen peroxide detection: In a horseradish peroxidise (HRP) coupled reaction, hydrogen peroxide oxidation of 10-acetyl-3,7-dihydroxyphenoxazine produces resorufin, which is a highly fluorescent compound (Zhout and Panchuk-Voloshina. Analytical Biochemistry 253 (1997) 169-174; Amplex® Red Hydrogen Peroxide/peroxidise Assay kit, Invitrogen A22188). […] Benzylarnine concentration is fixed at a concentration corresponding to the Michaelis constant, determined using standard procedures. Fluorescence intensity is then measured at several time points during 1-2 hours, exciting at 544 nm and reading the emission at 590 nm. […] The inhibition is measured as % decrease of the signal compared to a control without inhibitor (only diluted DMSO). […]

human SSAO = target: T2, human SSAO (Homo sapiens, UniProt Q16853); conditions: Salter-Cid et al., J Pharmacol Exp Ther. 2005; read-out: human SSAO, IC(50); cited from earlier work
T2 sequence (Q16853 1-763): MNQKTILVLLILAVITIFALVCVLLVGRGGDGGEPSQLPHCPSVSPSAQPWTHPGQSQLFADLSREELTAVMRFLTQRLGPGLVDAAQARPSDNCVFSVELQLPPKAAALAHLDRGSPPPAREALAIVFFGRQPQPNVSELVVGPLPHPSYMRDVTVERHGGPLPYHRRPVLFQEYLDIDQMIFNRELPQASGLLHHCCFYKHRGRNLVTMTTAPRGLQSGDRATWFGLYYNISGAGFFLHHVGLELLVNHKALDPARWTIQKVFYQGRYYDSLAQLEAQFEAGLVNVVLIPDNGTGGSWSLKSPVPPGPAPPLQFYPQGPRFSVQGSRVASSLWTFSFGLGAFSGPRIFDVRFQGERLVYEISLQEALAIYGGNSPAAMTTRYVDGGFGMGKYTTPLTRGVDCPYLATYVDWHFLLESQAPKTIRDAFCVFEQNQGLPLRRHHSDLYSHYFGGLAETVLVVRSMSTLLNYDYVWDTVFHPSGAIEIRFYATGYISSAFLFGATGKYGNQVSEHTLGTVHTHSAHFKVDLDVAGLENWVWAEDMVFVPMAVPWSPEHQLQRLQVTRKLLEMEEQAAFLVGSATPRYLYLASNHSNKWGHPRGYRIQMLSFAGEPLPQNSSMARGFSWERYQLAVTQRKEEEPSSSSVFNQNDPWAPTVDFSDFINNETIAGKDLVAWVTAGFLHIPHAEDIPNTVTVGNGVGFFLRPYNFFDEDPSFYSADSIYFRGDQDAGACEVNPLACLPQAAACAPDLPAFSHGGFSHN

[1] = system: adjuvant-induced arthritis; experiment: Adjuvant-induced arthritis model, Randall Selitto assay (mechanical hyperalgesia); assay type: in vivo, rat; conditions: Lewis rats, dosed day 0 to day 28: LJP1207 30 mg/kg po qd, MTX 0.25 mg/kg ip 3 times per week; assessed day 7, 14, 18, 21, 25, 28; FIG. 2
Source text: Rats injected into the hindpaw with a mixture of Mycobacterium butirricum emulsified in light mineral oil develop a severe polyarthritis which shares some features in common with human rheumatoid arthritis (RA), such as swelling of the extremities, cartilage degradation, loss of joint function and lymphocyte infiltration into diseased joints. This model was originally described more than 60 years ago (Pearson et al., Arthritis and Rheumatology. 1959. 2(5), 440-459) and is still the most widely used assay to identify chemical agents having a potential therapeutic efficacy in RA. […] Furthermore, this is a well-established model for inflammatory pain, especially longer-term (i.e. chronic) inflammatory pain.
Male Lewis rats (220-230 g) were housed in propylene cages with food and water ad libitum. The light cycle was automatically controlled and the room temperature thermostatically regulated to 21±1° C. Prior to the start of the experiment animals were housed in these conditions for 6-8 days.
Rats were anaesthetized before induction of CFA and then were treated orally starting from day 0 to day 28 with LJP1207 (30 mg/kg po qd) or methotrexate (MTX, 0.25 mg/kg ip 3 times per week). Control rats received the vehicle e.g. PBS starting from day 0. […] The development of arthritis was assessed at day 7, 14, 18, 21, 25 and 28. […]

| Structure (SMILES) | IC50 (human VAP-1 (SSAO)) [nM] | IC50 (human SSAO) [nM] | inhibition of paw withdrawal (nociceptive threshold, Randall Selitto) [1] |
| --- | --- | --- | --- |
| CC(C)[C@H]1c2[nH]cnc2CCN1C(=O)O[C@H]1CCOC1 [Compound 1, (3S)-Tetrahydrofuran-3-yl (4S)-4-isopropyl-1,4,6,7-tetrahydro-5H-Imidazo[4,5-c]pyridine-5-carboxylate] | 37 | – | – |
| C=C(CNN)c1ccccc1.Cl [LJP1207, N′-(2-phenyl-allyl)-hydrazine hydrochloride] | – | 17 | significant inhibition at day 21, 25 and 28 |
| CN(Cc1cnc2nc(N)nc(N)c2n1)c1ccc(C(=O)N[C@@H](CCC(=O)O)C(=O)O)cc1 [MTX, methotrexate] | – | – | significant inhibition starting at day 18 up to day 28 |
